Measured values published in PMC10671360, “In Silico and In Vitro Study towards the Rational Design of 4,4′-Disarylbisthiazoles as a Selective α-Synucleinopathy Biomarker” (International Journal of Molecular Sciences, 2023).
Entries after “also recorded” stand apart in the source; their conditions may differ.

Experiments:
[1] = target: T1, recombinant α-syn fibrils (Homo sapiens, UniProt P37840); assay: Competition binding assay against [^3H]DCVJ, α-syn fibrils; details: ratio of Ki, [^3H]DCVJ was used
T1 construct: made in house
Method: The incubation of purified recombinant α-synuclein monomer (10 mg/mL) obtained as described by Uzuegbunam was carried out in PBS (pH 7.4) at 37 °C. The solution was left shaking at 900 rpm in an Eppendorf Thermomixer for up to 84 h. Determination of the concentration of the formed fibrils (α-syn) was carried out following the centrifugation of the reaction vial at 12,000× g for 5 min. The pellet obtained was washed thrice with 20 mM of Tris-HCl, pH 7.4. The supernatants from the three centrifugation steps were combined, and the concentration of the monomer in the resulting supernatant was determined in a BCA assay (Thermo Fisher Scientific, Waltham, MA, USA) (with a BSA standard curve). Determination of the concentration of α-syn was carried out by subtracting the amount of α-synuclein monomer in the supernatant from the initial amount used for fibrillation.
(§1) The pellets of the fibrils obtained above (Section 4.2.1) were resuspended in 20 mM of Tris-HCl, pH 7.4 and diluted as needed for the binding assays.
(§2) A fixed concentration of [^3H]DCVJ (10 nM) and α-synuclein aggregates (125 nM), prepared as described above (Section 4.2.3), was used with different final concentrations of the DABTAs from 0.01 to 100 nM (see SI Figure S1). The experiment was carried out in quintuplicate for each concentration. The mixture was incubated for 2 h in a final volume of 200 μL per well after dilution with 20 mM of Tris-HCl, pH 7.4. The incubated mixtures were filtered through a Perkin Elmer GF/B glass filter via a TOMTEC cell harvester and immediately washed thrice with 1 mL of deionized water. The filters containing the bound ligands were dried and afterwards mixed with 3 mL of BetaPlate Scint solution (Perkin Elmer Life Sciences, Waltham, MA, USA) and left there for 2 h before counting in a Wallac 1450 MicroBeta TriLux Liquid Scintillation Counter (PerkinElmer Life Sciences, Waltham, MA, USA). For the determination of the inhibition constants, data were analyzed using GraphPad Prism software (version 7.0) to obtain IC50 values by fitting the data to the equation Y = bottom + (top − bottom)/(1 + 10(x − log IC50)). Ki values were calculated from IC50 values using the equation Ki = IC50/(1 + [radioligand]/Kd). […] Further protocol was carried out as for [^3H]DCVJ (see SI Figure S3).

[2] = target: T1, recombinant α-syn fibrils; assay: Competition binding assay against [^3H]PiB, α-syn fibrils; details: for Selectivity Aβ/α-syn / Selectivity tau/α-syn: ratio of Ki, [^3H]PiB was used
[3] = target: T2, Aβ1−42 fibrils (Homo sapiens, UniProt P05067); assay: Competition binding assay against [^3H]PiB, Aβ1−42 fibrils; details: read-out: Ki Aβ
T2 construct: 1 mg of β-amyloid1–42 peptide (Abcam, Cambridge, UK); purchased Abcam
T2 sequence (P05067 672-713): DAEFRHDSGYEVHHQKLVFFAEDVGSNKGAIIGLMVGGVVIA
Method: After the dissolution of 1 mg of β-amyloid1–42 peptide (Abcam, Cambridge, UK) in 50 μL of DMSO, 925 μL of Milli-Q® water was added to it, and the mixture was stirred. Finally, 25 μL of 1M Tris HCl, pH 7.4 was added to bring the final peptide concentration to 1 mg/mL. The mixture was then left to incubate at 37 °C for 30 h with shaking at 900 rpm. To separate the non-aggregated monomers from the formed fibrils, the reaction mixture was centrifuged at 12,000× g for 5 min, and the resulting pellet was washed three times with 500 μL of 20 mM Tris-HCl, pH 7.4. The supernatants from the three centrifugation steps were combined, and the concentration of the monomer in the resulting supernatant was determined in a BCA assay (Thermo Fisher Scientific, Waltham, MA, USA) (with a BSA standard curve). Determination of the concentration of fibrils formed was carried out by subtracting the amount of β-amyloid1−42 peptide monomer in the supernatant from the initial amount used for fibrillation.
as §1, §2
Further procedures followed the same already described in Section 4.2.3.1 (See SI Figure S4).

[4] = parameters: method as in PMID 35572127; details: cited from earlier work
[5] = target: tau fibrils (Homo sapiens, UniProt P10636); assay: Competition binding assay against [^3H]PiB, tau fibrils
Sequence of tau fibrils (P10636 2-758): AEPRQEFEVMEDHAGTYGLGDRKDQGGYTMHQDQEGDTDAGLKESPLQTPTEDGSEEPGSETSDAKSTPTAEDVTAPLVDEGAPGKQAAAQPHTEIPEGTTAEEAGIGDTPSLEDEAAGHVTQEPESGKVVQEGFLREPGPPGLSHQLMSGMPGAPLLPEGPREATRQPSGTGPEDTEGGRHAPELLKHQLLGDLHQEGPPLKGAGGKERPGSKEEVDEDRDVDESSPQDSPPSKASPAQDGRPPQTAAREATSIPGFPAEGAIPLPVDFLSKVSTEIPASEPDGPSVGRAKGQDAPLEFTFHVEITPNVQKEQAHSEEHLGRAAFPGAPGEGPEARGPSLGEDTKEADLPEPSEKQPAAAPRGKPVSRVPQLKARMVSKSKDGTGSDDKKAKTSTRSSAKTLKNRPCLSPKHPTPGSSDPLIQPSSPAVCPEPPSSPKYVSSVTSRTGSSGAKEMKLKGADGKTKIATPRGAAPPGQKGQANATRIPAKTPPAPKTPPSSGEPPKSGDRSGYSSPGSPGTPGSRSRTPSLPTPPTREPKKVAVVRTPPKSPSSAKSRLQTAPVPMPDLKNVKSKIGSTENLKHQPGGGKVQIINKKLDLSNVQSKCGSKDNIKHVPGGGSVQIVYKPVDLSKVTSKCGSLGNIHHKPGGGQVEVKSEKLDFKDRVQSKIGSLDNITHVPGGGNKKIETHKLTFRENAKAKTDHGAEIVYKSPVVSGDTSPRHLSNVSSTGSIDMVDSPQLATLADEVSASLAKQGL
Method: as §2, with “Recombinant tau monomer (R&D systems, Minneapolis, MN, USA) was dissolved in 20 mM of Tris HCl, pH 8.0, 100 mM of NaCl, 25 μM of low-MW heparin, and 0.5 mM of dithiothreitol to a final concentration of 300 µg/mL. The mixture was incubated with shaking at 900 rpm at 37 °C for 48 h. To separate the non-aggregated monomers from the formed fibrils, the reaction mixture was centrifuged at 12,000× g for 5 min, and the resulting pellet was washed three times with 500 μL of 20 mM Tris-HCl, pH 7.4. The supernatants from the three centrifugation steps were combined, and the concentration of the monomer in the resulting supernatant was determined in a BCA assay(Thermo Fisher Scientific, Waltham, MA, USA) (with a BSA standard curve). Determination of the concentration of fibrils formed was carried out by subtracting the amount of tau peptide monomer in the supernatant from the initial amount used for fibrillation. The pellets of the fibrils obtained above (Section 4.2.1) were resuspended in 20 mM of Tris-HCl, pH 7.4 and diluted as needed for the binding assays. A fixed” for “A fixed”, “Figure S3). […] Further procedures followed the same already described in Section 4.2.3.1 (See SI Figure S4).” for “Figure S3).”

[6] = target: tau (Homo sapiens, UniProt P10636); parameters: method as in PMID 12657667, PMID 32098280, PMID 18221373; details: [^3H]PiB; cited from earlier work
Sequence of tau (P10636 2-758): as above

[7] = target: α-syn (Homo sapiens, UniProt P37840); parameters: method as in PMID 12657667, PMID 32098280, PMID 18221373; details: [^3H]PiB; cited from earlier work
[8] = Solubility in the incubation medium of the binding assays; assay type: physicochemical; details: incubation buffer of the binding assays

Selectivity Aβ/α-syn [1] | Selectivity tau/α-syn [1] | Ki [2] | Selectivity Aβ/α-syn [2] | Selectivity tau/α-syn [2] | Ki [3] | Ki [5] | SMILES | brain uptake and washout [4] | Kd [6] | Kd [7] | solubility in the incubation medium [8]
3863.0 | >10,000.0 | 1.01 nM | 125.8 | >990.1 | 127 nM |  | Fc1ccc(-c2csc(-c3nc(-c4cnc5c(c4)OCO5)cs3)n2)cn1 [d8, 6-(4′-(6-Fluoropyridin-3-yl)-[2,2′-bithiazol]-4-yl)-[1,3]dioxolo[4,5-b]pyridine] | excellent brain uptake and washout |  |  | 
196.0 | 798.3 | 2.51 nM | 60.1 | 318.2 | 151 nM | 799 nM | Fc1ccc(-c2csc(-c3nc(-c4ccc5c(c4)OCO5)cs3)n2)cn1 [d6, 4-(Benzo[d][1,3]dioxol-5-yl)-4′-(6-fluoropyridin-3-yl)-2,2′-bithiazole] | excellent brain uptake and washout |  |  | 
 |  |  |  |  |  |  | [3H]C([3H])([3H])Nc1ccc(-c2nc3ccc(O)cc3s2)cc1 [[^3H]PiB] |  | 117 nM | 4.9 nM | 
 |  | 4.99 nM |  |  |  |  | COc1ccc(-c2csc(-c3nc(-c4cnc5c(c4)OCO5)cs3)n2)cc1OC [f18, 6-(4′-(3,4-Dimethoxyphenyl)-[2,2′-bithiazol]-4-yl)-[1,3]dioxolo[4,5-b]pyridine] |  |  |  | low solubility; also recorded: decreased solubility
